The test system of assay [1] is MM1.S. Kind of assay: Antiproliferative activity against human MM1.S cells assessed as cell growth inhibition measured after 4 days by CellTitre-Glo assay. It counts as functional, cell-based. Conditions: 96 h.
In a further assay the test system is MV4-11. Kind of assay: Antiproliferative activity against human MV4-11 cells assessed as cell growth inhibition measured after 3 days by CellTitre-Glo assay. Type of assay: functional, cell-based. The conditions noted are these: MV4-11, 72 h.
In another assay the test system is Mus musculus. Kind of assay: In vivo PROTAC activity at CRBN/BRD4-L in SCID mouse xenografted with human MM1.S cells assessed as reduction in BRD4-L protein level in tumor at 100 mg/kg, po measured after 6 hrs by Western blot analysis. Type of assay: functional, organism-based.
Assay [2] concerns the target T1, Protein cereblon/Bromodomain-containing protein 2 (Homo sapiens) (UniProt P25440+Q96SW2). Kind of assay: PROTAC activity at CRBN/BRD2 in human MM1.S cells assessed as induction of protein degradation at 1 uM measured after 1 to 24 hrs by Western blot analysis. Type of assay: cell-based. Conditions: time 1-24 hrs.
In assay [3] the target is T2, Protein cereblon/Bromodomain-containing protein 4 (Homo sapiens) (UniProt O60885+Q96SW2). Kind of assay: PROTAC activity at CRBN/BRD4-L in human HGC-27 cells assessed as induction of protein degradation at 1 uM measured around 1 to 3 hrs by Western blot analysis. It counts as cell-based. The conditions noted are these: time 1-3 hrs.
T2 sequence (Q96SW2 whole entry, looked up, other chains not shown): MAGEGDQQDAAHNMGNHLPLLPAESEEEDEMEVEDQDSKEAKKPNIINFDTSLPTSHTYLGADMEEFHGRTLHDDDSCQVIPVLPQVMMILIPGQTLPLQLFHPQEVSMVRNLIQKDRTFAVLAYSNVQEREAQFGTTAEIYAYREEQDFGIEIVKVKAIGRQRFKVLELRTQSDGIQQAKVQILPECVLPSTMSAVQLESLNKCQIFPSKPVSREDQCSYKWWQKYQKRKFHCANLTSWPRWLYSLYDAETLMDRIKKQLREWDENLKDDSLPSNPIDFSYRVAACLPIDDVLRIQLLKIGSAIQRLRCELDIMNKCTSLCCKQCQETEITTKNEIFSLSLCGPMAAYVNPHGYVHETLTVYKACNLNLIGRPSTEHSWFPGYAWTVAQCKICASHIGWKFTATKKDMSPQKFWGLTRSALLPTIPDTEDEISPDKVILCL
Assay [4] addresses T3, Protein cereblon/Bromodomain-containing protein 3 (Homo sapiens) (UniProt Q15059+Q96SW2). In words: PROTAC activity at CRBN/BRD3 in human MV4-11 cells assessed as induction of protein degradation at 0.5 to 10 uM measured after 24 hrs by Western blot analysis. Type of assay: cell-based. Conditions: dose 0.5-10 µM.
Assay [5] deals with MM1.S. Kind of assay: Downregulation of c-Myc expression in human MM1.S cells at 1 uM measured after 1 to 24 hrs by Western blot analysis. It counts as functional, cell-based. The conditions noted are these: time 1-24 hrs.
Assay [6] addresses T2, Protein cereblon/Bromodomain-containing protein 4 (Homo sapiens). Kind of assay: PROTAC activity at CRBN/BRD4-S in human MM1.S cells assessed as induction of protein degradation at 1 uM measured after 1 to 24 hrs by Western blot analysis. It counts as cell-based. The conditions noted are these: time 1-24 hrs.
Assay [7] addresses T3, Protein cereblon/Bromodomain-containing protein 3 (Homo sapiens). In words: PROTAC activity at CRBN/BRD3 in human MCF7 cells assessed as induction of protein degradation at 1 uM measured around 1 to 3 hrs by Western blot analysis. Type of assay: cell-based. The conditions noted are these: time 1-3 hrs.
A further assay has as its system A549. In words: Antiproliferative activity against human A549 cells assessed as cell growth inhibition measured after 4 days by CCK-8 assay. Type of assay: functional, cell-based. Conditions: A549, 96 h.
For a further assay, the system named is HeLa. Kind of assay: Antiproliferative activity against human HeLa cells assessed as cell growth inhibition measured after 4 days by CCK-8 assay. It counts as functional, cell-based. The conditions noted are these: 96 h.
Assay [8] deals with T4, Bromodomain-containing protein 3 (Homo sapiens, UniProt Q15059). In words: Binding affinity to recombinant human BRD3 BD2 (306 to 417 residues) assessed as inhibition constant by fluorescence polarization binding assay.
T4 sequence (Q15059 whole entry, the tested form may be a part): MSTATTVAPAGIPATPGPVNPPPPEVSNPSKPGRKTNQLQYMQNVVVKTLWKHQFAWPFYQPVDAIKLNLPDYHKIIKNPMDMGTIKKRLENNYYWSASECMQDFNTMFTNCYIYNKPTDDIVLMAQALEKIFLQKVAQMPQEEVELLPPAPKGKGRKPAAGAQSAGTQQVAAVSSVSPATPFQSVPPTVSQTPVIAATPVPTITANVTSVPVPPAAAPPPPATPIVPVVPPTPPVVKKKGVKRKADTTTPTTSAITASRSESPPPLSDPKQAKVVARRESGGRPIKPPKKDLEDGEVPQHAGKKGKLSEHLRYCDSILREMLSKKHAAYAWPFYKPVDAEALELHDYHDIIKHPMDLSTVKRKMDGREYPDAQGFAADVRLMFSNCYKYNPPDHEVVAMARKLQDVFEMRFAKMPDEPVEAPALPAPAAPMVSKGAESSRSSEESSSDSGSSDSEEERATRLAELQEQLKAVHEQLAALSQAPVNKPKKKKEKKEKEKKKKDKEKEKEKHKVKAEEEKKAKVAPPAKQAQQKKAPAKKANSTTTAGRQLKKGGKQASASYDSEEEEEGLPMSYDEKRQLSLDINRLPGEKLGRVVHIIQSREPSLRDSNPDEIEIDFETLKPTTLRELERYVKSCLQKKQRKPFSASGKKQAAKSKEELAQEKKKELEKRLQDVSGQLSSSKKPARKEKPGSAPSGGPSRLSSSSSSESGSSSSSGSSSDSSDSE
Assay [9] deals with T2, Protein cereblon/Bromodomain-containing protein 4 (Homo sapiens). In words: PROTAC activity at CRBN/BRD4-S in human MV4-11 cells assessed as induction of protein degradation at 0.5 to 10 uM measured after 24 hrs by Western blot analysis. It counts as cell-based. The conditions noted are these: dose 0.5-10 µM.
Assay [10] has the same target. In words: PROTAC activity at CRBN/BRD4-L in human MCF7 cells assessed as induction of protein degradation at 1 to 50 uM measured after 24 hrs by Western blot analysis. Type of assay: cell-based. Conditions: dose 1-50 µM.
In assay [11] the target is T3, Protein cereblon/Bromodomain-containing protein 3 (Homo sapiens). Kind of assay: PROTAC activity at CRBN/BRD3 in human MM1.S cells assessed as induction of protein degradation at 1 uM measured after 1 to 24 hrs by Western blot analysis. Type of assay: cell-based. Conditions: time 1-24 hrs.
Assay [12] deals with T2, Protein cereblon/Bromodomain-containing protein 4 (Homo sapiens). Kind of assay: PROTAC activity at CRBN/BRD4-L in human MV4-11 cells assessed as induction of protein degradation at 0.5 to 10 uM measured after 24 hrs by Western blot analysis. Type of assay: cell-based. The conditions noted are these: dose 0.5-10 µM.
The target in assay [13] is T3, Protein cereblon/Bromodomain-containing protein 3 (Homo sapiens). In words: PROTAC activity at CRBN/BRD3 in human MM1.S cells assessed as induction of protein degradation measured after 24 hrs by Western blot analysis. It counts as cell-based.
For assay [14], the target named is T2, Protein cereblon/Bromodomain-containing protein 4 (Homo sapiens). In words: PROTAC activity at CRBN/BRD4-L in human HeLa cells assessed as induction of protein degradation at 1 to 50 uM measured after 24 hrs by Western blot analysis. Type of assay: cell-based. Conditions: dose 1-50 µM.
Assay [15] shares this target. In words: PROTAC activity at CRBN/BRD4-L in human MM1.S cells assessed as induction of protein degradation at 1 uM measured after 1 to 24 hrs by Western blot analysis. Type of assay: cell-based. Conditions: time 1-24 hrs.
The target is the same in assay [16]. In words: PROTAC activity at CRBN/BRD4-L in human MCF7 cells assessed as induction of protein degradation at 1 uM measured around 1 to 3 hrs by Western blot analysis. Type of assay: cell-based. Conditions: time 1-3 hrs.
Assay [17] concerns the target T1, Protein cereblon/Bromodomain-containing protein 2 (Homo sapiens). In words: PROTAC activity at CRBN/BRD2 in human MV4-11 cells assessed as induction of protein degradation at 0.5 to 10 uM measured after 24 hrs by Western blot analysis. Conditions: dose 0.5-10 µM. Type of assay: cell-based.
For the next assay, the system named is HepG2. Kind of assay: Antiproliferative activity against human HepG2 cells assessed as cell growth inhibition measured after 4 days by CCK-8 assay. Conditions: HepG2, 96 h. It counts as functional, cell-based.
Assay [18] addresses T3, Protein cereblon/Bromodomain-containing protein 3 (Homo sapiens). Kind of assay: PROTAC activity at CRBN/BRD3 in human HGC-27 cells assessed as induction of protein degradation at 1 uM measured around 1 to 3 hrs by Western blot analysis. Conditions: time 1-3 hrs. Type of assay: cell-based.
In assay [19] the target is T4, Bromodomain-containing protein 3. Kind of assay: Binding affinity to recombinant human BRD3 BD1 (24 to 144 residues) assessed as inhibition constant by fluorescence polarization binding assay.
The target of assay [20] is T3, Protein cereblon/Bromodomain-containing protein 3 (Homo sapiens). Kind of assay: PROTAC activity at CRBN/BRD3 in human HeLa cells assessed as induction of protein degradation at […] measured after 24 hrs by Western blot analysis. Conditions: dose lower 1.0 µM. Type of assay: cell-based.
For another assay, the system named is HGC-27. Kind of assay: Antiproliferative activity against human HGC-27 cells assessed as cell growth inhibition measured after 4 days by CCK-8 assay. It counts as functional, cell-based. The conditions noted are these: HGC-27, 96 h.
Assay [21] deals with T3, Protein cereblon/Bromodomain-containing protein 3 (Homo sapiens). In words: PROTAC activity at CRBN/BRD3 in human MCF7 cells assessed as induction of protein degradation at 1 to 50 uM measured after 24 hrs by Western blot analysis. It counts as cell-based. Conditions: dose 1-50 µM.
In assay [22] the target is T1, Protein cereblon/Bromodomain-containing protein 2 (Homo sapiens). In words: PROTAC activity at CRBN/BRD2 in human MCF7 cells assessed as induction of protein degradation at 1 uM measured around 1 to 3 hrs by Western blot analysis. It counts as cell-based. Conditions: time 1-3 hrs.
In assay [23] the target is T3, Protein cereblon/Bromodomain-containing protein 3 (Homo sapiens). Kind of assay: PROTAC activity at CRBN/BRD3 in human MM1.S cells assessed as induction of protein degradation at 1 uM measured around 1 to 3 hrs by Western blot analysis. Conditions: time 1-3 hrs. It counts as cell-based.
In assay [24] the target is T2, Protein cereblon/Bromodomain-containing protein 4 (Homo sapiens). Kind of assay: PROTAC activity at CRBN/BRD4-L in human MM1.S cells assessed as induction of protein degradation at 1 uM measured around 1 to 3 hrs by Western blot analysis. Type of assay: cell-based. Conditions: time 1-3 hrs.
Assay [25] concerns the target T1, Protein cereblon/Bromodomain-containing protein 2 (Homo sapiens). Kind of assay: PROTAC activity at CRBN/BRD2 in human HGC-27 cells assessed as induction of protein degradation at 1 uM measured around 1 to 3 hrs by Western blot analysis. It counts as cell-based. The conditions noted are these: time 1-3 hrs.
For another assay, the system named is MCF7. Kind of assay: Antiproliferative activity against human MCF7 cells assessed as cell growth inhibition measured after 4 days by CCK-8 assay. Type of assay: functional, cell-based. The conditions noted are these: MCF7, 96 h.
The target in assay [26] is T1, Protein cereblon/Bromodomain-containing protein 2 (Homo sapiens). Kind of assay: PROTAC activity at CRBN/BRD2 in human MM1.S cells assessed as induction of protein degradation at 1 uM measured around 1 to 3 hrs by Western blot analysis. It counts as cell-based. Conditions: time 1-3 hrs.
The target of assay [27] is T2, Protein cereblon/Bromodomain-containing protein 4 (Homo sapiens). In words: PROTAC activity at CRBN/BRD4-L in human MM1.S cells assessed as induction of protein degradation measured after 24 hrs by Western blot analysis. Type of assay: cell-based.

IC50, Activity and Ki data for 2 compounds are collected here from ChEMBL document CHEMBL5321219, “Selective degradation of cellular BRD3 and BRD4-L promoted by PROTAC molecules in six cancer cell lines” (Eur J Med Chem, 2023).

Active and inactive are the calls of the source. No cut-off for these calls is given here.

T3 sequence (Q15059 2-726 limits assumed): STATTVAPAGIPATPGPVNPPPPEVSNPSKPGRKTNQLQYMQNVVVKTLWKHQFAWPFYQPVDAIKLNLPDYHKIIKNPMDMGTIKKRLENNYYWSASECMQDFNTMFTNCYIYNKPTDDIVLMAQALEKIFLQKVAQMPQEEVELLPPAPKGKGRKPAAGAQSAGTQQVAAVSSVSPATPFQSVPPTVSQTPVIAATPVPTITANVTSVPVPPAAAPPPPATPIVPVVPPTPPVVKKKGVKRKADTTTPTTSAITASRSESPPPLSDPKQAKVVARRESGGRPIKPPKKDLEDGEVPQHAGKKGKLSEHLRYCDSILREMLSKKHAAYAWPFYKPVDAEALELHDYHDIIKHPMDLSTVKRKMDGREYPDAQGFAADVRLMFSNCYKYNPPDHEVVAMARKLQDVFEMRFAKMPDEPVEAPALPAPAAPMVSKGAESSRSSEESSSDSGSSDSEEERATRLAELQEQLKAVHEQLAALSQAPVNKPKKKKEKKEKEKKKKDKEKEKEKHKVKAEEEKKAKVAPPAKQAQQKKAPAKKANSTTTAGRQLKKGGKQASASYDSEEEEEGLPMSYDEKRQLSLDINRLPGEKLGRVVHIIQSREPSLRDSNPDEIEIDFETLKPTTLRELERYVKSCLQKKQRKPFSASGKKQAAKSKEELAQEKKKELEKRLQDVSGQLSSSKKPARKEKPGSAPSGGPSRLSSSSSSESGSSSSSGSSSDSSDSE
T3 sequence (Q96SW2 whole entry partner): as the sequence (Q96SW2 whole entry, looked up, other chains not shown) above
T1 sequence (P25440 whole entry, looked up): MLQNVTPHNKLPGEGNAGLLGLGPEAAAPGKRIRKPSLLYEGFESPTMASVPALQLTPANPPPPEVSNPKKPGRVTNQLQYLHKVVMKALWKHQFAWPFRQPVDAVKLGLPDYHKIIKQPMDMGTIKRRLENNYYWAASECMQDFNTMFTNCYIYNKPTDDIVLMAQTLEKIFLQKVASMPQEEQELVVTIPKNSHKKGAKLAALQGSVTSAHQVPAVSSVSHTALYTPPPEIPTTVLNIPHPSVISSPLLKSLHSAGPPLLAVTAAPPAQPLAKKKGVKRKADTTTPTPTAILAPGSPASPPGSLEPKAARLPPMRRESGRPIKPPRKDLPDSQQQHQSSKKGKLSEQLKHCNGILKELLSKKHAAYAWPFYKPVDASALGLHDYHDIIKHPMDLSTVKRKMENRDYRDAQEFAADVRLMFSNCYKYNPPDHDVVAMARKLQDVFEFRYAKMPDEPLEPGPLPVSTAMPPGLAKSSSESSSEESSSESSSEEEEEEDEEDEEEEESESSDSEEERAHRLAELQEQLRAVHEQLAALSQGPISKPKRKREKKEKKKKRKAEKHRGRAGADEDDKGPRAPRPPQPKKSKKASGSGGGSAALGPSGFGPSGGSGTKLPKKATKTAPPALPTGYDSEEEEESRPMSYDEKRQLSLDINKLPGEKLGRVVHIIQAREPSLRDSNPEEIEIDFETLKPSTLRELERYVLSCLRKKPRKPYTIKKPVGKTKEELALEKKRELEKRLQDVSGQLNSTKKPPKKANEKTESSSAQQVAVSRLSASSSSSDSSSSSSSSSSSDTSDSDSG
T1 sequence (Q96SW2 whole entry, looked up): as the sequence (Q96SW2 whole entry, looked up, other chains not shown) above

In the case of `Cc1nnc2n1-c1ccc(-c3cnn(C)c3)cc1[C@H](Nc1ccc(Cl)cc1)CC2`, the IC50 in the assay with MM1.S [1] is 2320 nM; with MV4-11 it was 270 nM. Also, the result in the assay on Mus musculus was Active.
For the compound `Cc1sc2c(c1C)C(c1ccc(Cl)cc1)=N[C@@H](CC(=O)NCCCCNC(=O)COc1cccc3c1C(=O)N(C1CCC(=O)NC1=O)C3=O)c1nnc(C)n1-2` (stereo partly specified), the outcome (in assay [2]; in [3]; in assay [4]; in the assay on MM1.S [5]; in assay [7]; in assay [9]) was Active. Besides, the outcome in [10], in [11], in [12], in assay [14], in assay [15] and in assay [16] was Active. For the same compound, the outcome in assay [17], in [18], in assay [20], in [21], in assay [22] and in assay [23] was Active. Moreover, the result in [24], in assay [25] and in [26] was Active. Further, the half-inhibitory concentration (IC50) with MM1.S [1] worked out at 2470 nM; in the assay with A549 it was 12300 nM; in the assay on HeLa, 16100 nM; in the assay with HepG2, 19800 nM; in the assay with MV4-11 it was 11.8 nM; in the assay on HGC-27, 880 nM. The half-inhibitory concentration (IC50) in the assay with MCF7 amounted to 5300 nM. For the same compound, the result in assay [6] was inactive. Further, the figures for the Ki in assay [8] and in assay [19] were 5.26 nM and 7.28 nM, respectively. Moreover, the Activity entry in [13] and in assay [27] was “Dose-Dependent Effect” in each case.
